± gives the expanded uncertainty stated by the source.
Assay: activity coefficient (dimensionless); of the first substance listed, at infinite dilution; xn = mol fraction of the nth substance listed
Details: 101 kPa, Liquid, Chromatography, x1 = 0

| Structure (SMILES) | activity coefficient (298.15 K) | activity coefficient (308.15 K) | activity coefficient (318.15 K) | activity coefficient (328.15 K) | activity coefficient (338.15 K) | activity coefficient (348.15 K) | activity coefficient (358.15 K) | activity coefficient (368.15 K) |
| --- | --- | --- | --- | --- | --- | --- | --- | --- |
| C=CCCCCC [1-heptene] + CCCCCCOCn1cc[n+](COCCCCCC)c1.O=S(=O)([N-]S(=O)(=O)C(F)(F)F)C(F)(F)F | 2.7 ± 0.18 | 2.64 ± 0.18 | 2.59 ± 0.18 | 2.54 ± 0.17 | 2.49 ± 0.17 | 2.45 ± 0.17 | 2.41 ± 0.16 | 2.37 ± 0.16 |
| CO [methanol] + CCCCCCOCn1cc[n+](COCCCCCC)c1.O=S(=O)([N-]S(=O)(=O)C(F)(F)F)C(F)(F)F | 1.17 ± 0.07 | 1.06 ± 0.067 | 0.978 ± 0.061 | 0.9 ± 0.057 | 0.834 ± 0.054 | 0.776 ± 0.051 | 0.725 ± 0.048 | 0.681 ± 0.046 |
| c1ccsc1 [thiophene] + CCCCCCOCn1cc[n+](COCCCCCC)c1.O=S(=O)([N-]S(=O)(=O)C(F)(F)F)C(F)(F)F | 0.578 ± 0.041 | 0.575 ± 0.041 | 0.571 ± 0.041 | 0.568 ± 0.041 | 0.565 ± 0.041 | 0.562 ± 0.04 | 0.559 ± 0.04 | 0.557 ± 0.04 |
| CCCCCCCCCC [decane] + CCCCCCOCn1cc[n+](COCCCCCC)c1.O=S(=O)([N-]S(=O)(=O)C(F)(F)F)C(F)(F)F | 7.38 ± 0.5 | 7 ± 0.48 | 6.66 ± 0.45 | 6.38 ± 0.43 | 6.11 ± 0.42 | 5.87 ± 0.4 | 5.65 ± 0.39 | 5.46 ± 0.37 |
| CCCCO [butan-1-ol] + CCCCCCOCn1cc[n+](C)c1.O=S(=O)([N-]S(=O)(=O)C(F)(F)F)C(F)(F)F |  |  | 1.74 ± 0.12 | 1.58 ± 0.1 | 1.45 ± 0.1 | 1.34 ± 0.09 | 1.24 ± 0.08 | 1.15 ± 0.07 |
| C1CCOC1 [tetrahydrofuran] + CCCCCCOCn1cc[n+](COCCCCCC)c1.O=S(=O)([N-]S(=O)(=O)C(F)(F)F)C(F)(F)F | 0.294 ± 0.031 | 0.304 ± 0.031 | 0.314 ± 0.031 | 0.324 ± 0.032 | 0.333 ± 0.032 | 0.343 ± 0.032 | 0.352 ± 0.032 | 0.36 ± 0.033 |
| Cc1ccc(C)cc1 [1,4-dimethylbenzene] + CCCCCCOCn1cc[n+](C)c1.O=S(=O)([N-]S(=O)(=O)C(F)(F)F)C(F)(F)F |  |  | 1.46 ± 0.096 | 1.47 ± 0.097 | 1.48 ± 0.097 | 1.49 ± 0.098 | 1.5 ± 0.098 | 1.5 ± 0.099 |
| CCOCC [diethyl ether] + CCCCCCOCn1cc[n+](COCCCCCC)c1.O=S(=O)([N-]S(=O)(=O)C(F)(F)F)C(F)(F)F | 0.811 ± 0.052 | 0.826 ± 0.053 | 0.839 ± 0.054 | 0.854 ± 0.055 | 0.867 ± 0.055 | 0.879 ± 0.056 | 0.89 ± 0.057 | 0.904 ± 0.057 |
| CCCCCCC [heptane] + CCCCCCOCn1cc[n+](C)c1.O=S(=O)([N-]S(=O)(=O)C(F)(F)F)C(F)(F)F | 10.6 ± 0.7 | 10 ± 0.7 | 9.51 ± 0.65 | 9.07 ± 0.62 | 8.65 ± 0.59 | 8.28 ± 0.56 | 7.95 ± 0.54 | 7.66 ± 0.52 |
| C1CCCCC1 [cyclohexane] + CCCCCCOCn1cc[n+](C)c1.O=S(=O)([N-]S(=O)(=O)C(F)(F)F)C(F)(F)F | 5.44 ± 0.37 | 5.14 ± 0.35 | 4.87 ± 0.33 | 4.63 ± 0.32 | 4.43 ± 0.3 | 4.24 ± 0.29 | 4.07 ± 0.28 | 3.91 ± 0.27 |
| CCCCO [butan-1-ol] + CCCCCCOCn1cc[n+](COCCCCCC)c1.O=S(=O)([N-]S(=O)(=O)C(F)(F)F)C(F)(F)F |  |  | 1.19 ± 0.08 | 1.1 ± 0.07 | 1.01 ± 0.064 | 0.943 ± 0.059 | 0.877 ± 0.056 | 0.82 ± 0.053 |
| Cc1cccc(C)c1 [1,3-dimethylbenzene] + CCCCCCOCn1cc[n+](COCCCCCC)c1.O=S(=O)([N-]S(=O)(=O)C(F)(F)F)C(F)(F)F |  |  | 0.944 ± 0.06 | 0.946 ± 0.06 | 0.948 ± 0.06 | 0.951 ± 0.06 | 0.953 ± 0.06 | 0.955 ± 0.06 |
| C#CCCC [1-pentyne] + CCCCCCOCn1cc[n+](C)c1.O=S(=O)([N-]S(=O)(=O)C(F)(F)F)C(F)(F)F | 1.54 ± 0.1 | 1.56 ± 0.1 | 1.57 ± 0.1 | 1.58 ± 0.1 | 1.59 ± 0.11 | 1.59 ± 0.11 | 1.6 ± 0.11 | 1.61 ± 0.11 |
